Patent publication US20100310541A1, “Compositions and Methods for Reducing the Toxicity of Certain Toxins” (IRONWOOD PHARMACEUTICALS, INC., priority 2007, published 2010)
“Also recorded” adds a separate entry of the source.

Target: Escherichia coli heat stable enterotoxin (STa; SEQ ID NO: 1) (Escherichia coli, UniProt P07965)
Assay type: biochemical
Conditions: pH 8

O[C@H](CS)[C@H](O)CS (racemic) [DTT, dithiothreitol]
effect on SEQ ID NO:1 (LC/MS, FIG. 3): no visible effect
reduction of SEQ ID NO:1 disulfide bonds (FIG. 5): a small amount of fully reduced peptide; also recorded: complete reduction
reduction of native SEQ ID NO:1 based on peak area (FIG. 4): 47%
